Laboratory results reported in article PMC12257413, “Discovery of a Novel sp^3‑Rich M1 Positive Allosteric Modulators (PAMs) Chemotype via Scaffold Hopping” (ACS Medicinal Chemistry Letters, 2025).

Assays:
[1] = target: T1, rat muscarinic receptor subtype 1 (M1) (Rattus norvegicus, UniProt P08482); assay: Calcium mobilization assay in rM1-CHO cells, PAM activity with EC20 acetylcholine; type: cell-based; settings: for EC50: read-out: rM1 pEC50 ± SEM (converted)
T1 construct: expressed in transfected cells
T1 sequence (P08482 1-460): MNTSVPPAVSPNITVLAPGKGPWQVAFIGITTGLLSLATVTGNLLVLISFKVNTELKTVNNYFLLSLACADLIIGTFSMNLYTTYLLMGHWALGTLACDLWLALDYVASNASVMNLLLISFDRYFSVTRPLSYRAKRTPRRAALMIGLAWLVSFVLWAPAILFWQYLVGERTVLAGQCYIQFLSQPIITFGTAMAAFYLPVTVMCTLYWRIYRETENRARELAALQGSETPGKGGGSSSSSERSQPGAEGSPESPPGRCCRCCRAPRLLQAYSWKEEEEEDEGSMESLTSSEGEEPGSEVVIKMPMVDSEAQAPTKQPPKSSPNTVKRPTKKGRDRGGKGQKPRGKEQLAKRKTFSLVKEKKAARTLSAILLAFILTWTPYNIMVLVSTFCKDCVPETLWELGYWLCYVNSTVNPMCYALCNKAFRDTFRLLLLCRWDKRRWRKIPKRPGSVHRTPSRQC
Procedure: page 2: Procedures for Biological Experiments Calcium mobilization assays: To measure the functional activity of positive allosteric modulator (PAM) compounds in a cellular assay, human or rat muscarinic receptor subtype 1 (M1) was stably expressed in the Chinese hamster ovary (CHO) cells to evoke an increase in intracellular calcium to an EC20 concentration of acetylcholine (ACh) agonist. The stable M1-CHO cells were cultured in F12 medium containing 10% fetal bovine serum, 20 mM HEPES, 100 units/mL antibiotics/antimycotic, 0.5 mg/ml G418. All reagents used were from Life Technologies (Carlsbad, CA) unless otherwise noted. Briefly, the day before the assay, stable M1-CHO cells (15,000 cells/20 μL/well) were plated in black-walled, clear-bottomed, 384 well plates (Greiner Bio-One, Monroe, NC) in the culture medium without G418, and then incubated overnight at 37 °C in the presence of 5% CO2. The next day, calcium assay buffer (Hank’s balanced salt solution (HBSS), 20 mM HEPES, 2.5 mM Probenecid, 4.16 mM sodium bicarbonate (Sigma-Aldrich, St. Louis, MO) was prepared to dilute […] calcium indicator dye. […] curves in DMSO using the Bravo Liquid Handler (Agilent, Santa Clara, CA), transferred to a 384 well daughter plates using an Echo acoustic liquid handler (Beckman Coulter, Indianapolis, Indiana), and diluted in assay Buffer to a 2X final concentration. The agonist plates were prepared using acetylcholine (ACh, Sigma-Aldrich, St. Louis, MO) concentrations for the EC20 and ECMAX responses by diluting in assay buffer to a 5X final concentration. The 2X dye solution (2.3 µM) was prepared by mixing a 2.3 mM Fluo-4-AM stock in DMSO with 10% (w/v) pluronic acid F- 127 in a 1:1 ratio in assay buffer. Using a microplate washer (BioTek, Winooski, VT), cells were washed with assay buffer for 3 times to remove medium. After the final wash, 20 μL of assay buffer remained in the cell plates. Immediately, 20 μL of the 2X dye solution (final 1.15 µM) was added to each well of the cell plate using a Multidrop Combi dispenser (Thermo Fisher, Waltham, MA). After cells were incubated with the dye solutions for 45 min at 37 °C in the presence of 5% CO2, the dye solutions were removed and replaced with assay buffer using a microplate washer, leaving 20 μL of assay buffer in the cell plate. The compound, agonist, and cell plates were placed inside the Functional Drug Screening System uCell (FDSS uCell, Hamamatsu, Japan) to measure the calcium flux. The triple add protocol was used to measure Ca kinetics; Compound, ACh for EC20, and ACh for ECMAX adds in an order. Briefly, after establishment of a fluorescence baseline S2 page 3: for 2 seconds (excitation, 480 nm; emission, 530 nm), first add occurred by adding 20 µL of test compound to the cells, and the response was measured for 140 seconds. This is followed by second add; 10 µL (5X) of an EC20 concentration of ACh agonist was added to the cells, and the response of the cells was measured for 125 seconds. Immediately, the third add occurred by adding 12 ul assay buffer or 5X of an EC max concentration of ACh and the response of the cells was measured for 90 seconds. Assay buffer was added to the wells that incubated with compounds followed by EC20 concentration of ACh. Agonists containing ECmax concentration of ACh were added to the wells that incubated with DMSO and assay buffer from the 1st and 2nd adds to measure maximum Ca responses (ECmax). Calcium fluorescence was recorded as fold over basal fluorescence and raw data were normalized to the maximal response to ACh agonist. […]

ElogD 7.4 = type: physicochemical; settings: pH 7.4
Description: 4 Detailed In Vitro and In Vivo Profiles for Selected M1 PAMs ^a | column: 17k; 17g

rM1 %ACh Max ± SEM [1]	EC50 [1]	chromatographic logD (ElogD 7.4)	Compound
83 ± 4.1 %ACh Max	347 nM	3.05	Cn1cc(-c2ccc(Cc3cc(C(=O)N[C@H]4CCOC[C@@H]4O)nn3C3CCCC3)cc2)cn1 [17g]
83 ± 2.8 %ACh Max	490 nM	4.15	Cn1cc(-c2ccc(Cc3cc(C(=O)N[C@H]4CCCC[C@@H]4O)nn3C3CCCC3)cc2)cn1 [17k]
